This note sets out measurements from BindingDB's records for doi:10.7270/Q28C9TSJ (Nmmlsc, 2011).

The experiment concerns the target T1, Multidrug resistance protein CDR2 (Candida albicans (strain SC5314 / ATCC MYA-2876), UniProt P78595).
T1 sequence (P78595 whole entry): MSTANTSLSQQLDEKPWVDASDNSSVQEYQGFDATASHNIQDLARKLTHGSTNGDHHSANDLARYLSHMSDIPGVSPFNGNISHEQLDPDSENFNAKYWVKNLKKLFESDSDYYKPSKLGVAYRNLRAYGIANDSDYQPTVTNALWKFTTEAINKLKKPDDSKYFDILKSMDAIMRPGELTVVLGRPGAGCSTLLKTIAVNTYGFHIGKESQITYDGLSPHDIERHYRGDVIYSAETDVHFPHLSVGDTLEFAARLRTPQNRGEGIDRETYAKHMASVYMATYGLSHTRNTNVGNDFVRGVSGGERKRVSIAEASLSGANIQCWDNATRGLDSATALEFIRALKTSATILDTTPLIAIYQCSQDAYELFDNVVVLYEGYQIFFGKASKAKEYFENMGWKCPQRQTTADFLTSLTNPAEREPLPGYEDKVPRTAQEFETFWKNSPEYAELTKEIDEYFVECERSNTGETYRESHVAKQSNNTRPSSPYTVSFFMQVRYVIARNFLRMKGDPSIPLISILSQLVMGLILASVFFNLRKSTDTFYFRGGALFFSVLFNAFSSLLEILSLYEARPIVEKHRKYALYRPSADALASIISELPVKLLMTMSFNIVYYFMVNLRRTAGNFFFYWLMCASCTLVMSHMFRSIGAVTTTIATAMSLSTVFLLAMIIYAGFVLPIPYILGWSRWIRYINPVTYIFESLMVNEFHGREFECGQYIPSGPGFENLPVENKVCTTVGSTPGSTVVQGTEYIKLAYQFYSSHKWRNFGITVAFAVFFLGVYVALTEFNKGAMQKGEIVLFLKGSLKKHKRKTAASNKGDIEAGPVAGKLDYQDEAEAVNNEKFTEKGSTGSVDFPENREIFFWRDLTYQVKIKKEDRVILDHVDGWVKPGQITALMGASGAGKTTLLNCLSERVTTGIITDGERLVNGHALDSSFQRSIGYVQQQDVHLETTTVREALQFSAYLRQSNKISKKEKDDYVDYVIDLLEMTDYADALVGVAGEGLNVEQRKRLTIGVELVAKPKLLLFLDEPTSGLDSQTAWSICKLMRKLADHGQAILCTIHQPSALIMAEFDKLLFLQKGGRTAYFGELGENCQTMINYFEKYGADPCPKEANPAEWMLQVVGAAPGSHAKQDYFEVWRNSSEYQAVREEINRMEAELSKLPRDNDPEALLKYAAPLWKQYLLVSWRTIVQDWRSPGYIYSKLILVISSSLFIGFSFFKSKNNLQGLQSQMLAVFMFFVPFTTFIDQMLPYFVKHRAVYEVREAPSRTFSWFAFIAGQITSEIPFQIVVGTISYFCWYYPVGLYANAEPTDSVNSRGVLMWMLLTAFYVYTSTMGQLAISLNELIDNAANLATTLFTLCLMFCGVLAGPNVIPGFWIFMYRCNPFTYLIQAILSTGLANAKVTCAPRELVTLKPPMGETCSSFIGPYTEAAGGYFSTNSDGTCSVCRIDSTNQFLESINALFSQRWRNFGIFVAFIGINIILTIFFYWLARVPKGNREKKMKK
Put plainly: CaCDR2 efflux pump inhibitors in yeast, dose response, S. cerevisiae AD1-8u, singleplex, Cherry Pick1 hits (AID 588604).

As a reminder, the EC50 is the concentration giving half of the maximal effect.

The compound `O=[N+]([O-])c1cc(CN=Nc2ccccn2)ccc1Cl` displayed an EC50 of 9.33 µM.
